The values that follow come from article PMC5218480 (PLoS ONE, 2017).

The assay concerns MV-4-11 cells. Briefly: Gene expression microarray analysis (Affymetrix PrimeView) and GSEA. The class given is cell-based, human. On the set-up: RFU PODN (11730768_x_at) / Fold change /veh PODN (11730768_x_at) / RFU LINC00158 (11744669_a_at) / Fold change /veh LINC00158 (11744669_a_at) / RFU DUSP10 (11751237_a_at) / Fold change /veh DUSP10 (11751237_a_at) / RFU ID3 (11757404_x_at) / Fold change /veh ID3 (11757404_x_at) / RFU PLEKHG5 (11737974_s_at) / Fold change /veh PLEKHG5 (11737974_s_at) / RFU LRRC4B (11730491_at) / Fold change /veh LRRC4B (11730491_at) / RFU GIMAP4 (11747438_a_at) / Fold change /veh GIMAP4 (11747438_a_at) / RFU KRT8 (11758183_x_at) / Fold change /veh KRT8 (11758183_x_at) / RFU CNN1 (11734310_a_at) / Fold change /veh CNN1 (11734310_a_at) / RFU VPS37D (11726825_at) / Fold change /veh VPS37D (11726825_at) / RFU C10orf10 (11716522_x_at) / Fold change /veh C10orf10 (11716522_x_at) / RFU KIR2DL2 /// KIR2DL4 /// KIR2DL5A /// KIR2DL5B /// KIR2DS1 /// KIR2DS2 /// KIR2DS3 /// KIR2DS4 /// KIR3DL3 /// KIR3DL3 /// KIR3DS1 (11738374_at) / Fold change /veh KIR2DL2 /// KIR2DL4 /// KIR2DL5A /// KIR2DL5B /// KIR2DS1 /// KIR2DS2 /// KIR2DS3 /// KIR2DS4 /// KIR3DL3 /// KIR3DL3 /// KIR3DS1 (11738374_at) / RFU C1QL1 (11718748_at) / Fold change /veh C1QL1 (11718748_at) / RFU TMPRSS4 (11747572_a_at) / Fold change /veh TMPRSS4 (11747572_a_at) / RFU HAMP (11756126_x_at) / Fold change /veh HAMP (11756126_x_at) / RFU RNFT2 (11725882_a_at) / Fold change /veh RNFT2 (11725882_a_at) / RFU NR4A2 (11747474_a_at) / Fold change /veh NR4A2 (11747474_a_at) / RFU ABCC12 (11746883_a_at) / Fold change /veh ABCC12 (11746883_a_at) / RFU TMEM136 (11760407_x_at) / Fold change /veh TMEM136 (11760407_x_at) / RFU CLDN22 /// WWC2 (11732394_at) / Fold change /veh CLDN22 /// WWC2 (11732394_at) / RFU HLA-DPB1 (11760878_x_at) / Fold change /veh HLA-DPB1 (11760878_x_at) / RFU SPINT1 (11716480_a_at) / Fold change /veh SPINT1 (11716480_a_at) / RFU GAP43 (11754022_s_at) / Fold change /veh GAP43 (11754022_s_at) / RFU A4GNT (11735810_at) / Fold change /veh A4GNT (11735810_at) / RFU PRB3 (11715151_x_at) / Fold change /veh PRB3 (11715151_x_at) / RFU TUBB4B (11761932_at) / Fold change /veh TUBB4B (11761932_at) / RFU CAPN14 (11732068_a_at) / Fold change /veh CAPN14 (11732068_a_at) / RFU TMCC2 (11721928_a_at) / Fold change /veh TMCC2 (11721928_a_at) / RFU IRGQ (11745062_a_at) / Fold change /veh IRGQ (11745062_a_at) / RFU FAM174B (11720279_a_at) / Fold change /veh FAM174B (11720279_a_at) / RFU TMPRSS4 (11748680_a_at) / Fold change /veh TMPRSS4 (11748680_a_at) / RFU FAM212B (11763350_a_at) / Fold change /veh FAM212B (11763350_a_at) / RFU PLEKHG5 (11743358_a_at) / Fold change /veh PLEKHG5 (11743358_a_at) / RFU ZSCAN30 (11745921_a_at) / Fold change /veh ZSCAN30 (11745921_a_at) / RFU CMKLR1 (11741424_a_at) / Fold change /veh CMKLR1 (11741424_a_at) / RFU LOC101060620 /// MAPK8IP1 (11723275_at) / Fold change /veh LOC101060620 /// MAPK8IP1 (11723275_at) / RFU SPTSSB (11747773_x_at) / Fold change /veh SPTSSB (11747773_x_at) / RFU PRSS12 (11739890_at) / Fold change /veh PRSS12 (11739890_at) / RFU BIN1 (11741810_x_at) / Fold change /veh BIN1 (11741810_x_at) / RFU WNT11 (11732464_a_at) / Fold change /veh WNT11 (11732464_a_at) / RFU C10orf10 (11716521_a_at) / Fold change /veh C10orf10 (11716521_a_at) / RFU C5orf56 (11738089_at) / Fold change /veh C5orf56 (11738089_at) / RFU CYB561 (11721691_x_at) / Fold change /veh CYB561 (11721691_x_at) / RFU ANKRD19P (11752326_a_at) / Fold change /veh ANKRD19P (11752326_a_at) / RFU OR2T12 /// OR2T33 /// OR2T8 (11738714_s_at) / Fold change /veh OR2T12 /// OR2T33 /// OR2T8 (11738714_s_at) / RFU VCAN (11748164_a_at) / Fold change /veh VCAN (11748164_a_at) / RFU JSRP1 (11732532_at) / Fold change /veh JSRP1 (11732532_at) / RFU KRTAP10-11 (11738290_x_at) / Fold change /veh KRTAP10-11 (11738290_x_at) / RFU MYO3A (11730013_a_at) / Fold change /veh MYO3A (11730013_a_at) / RFU EBF3 (11725865_a_at) / Fold change /veh EBF3 (11725865_a_at) / RFU CAMK2N1 (11719241_x_at) / Fold change /veh CAMK2N1 (11719241_x_at) / RFU C5orf56 (11738088_a_at) / Fold change /veh C5orf56 (11738088_a_at) / RFU OLFML3 (11715873_a_at) / Fold change /veh OLFML3 (11715873_a_at) / RFU LOC100653217 /// NTM (11731650_a_at) / Fold change /veh LOC100653217 /// NTM (11731650_a_at) / RFU MAPK11 (11762145_a_at) / Fold change /veh MAPK11 (11762145_a_at) / RFU FIZ1 (11724087_x_at) / Fold change /veh FIZ1 (11724087_x_at) / RFU OASL (11726364_x_at) / Fold change /veh OASL (11726364_x_at) / RFU SOX15 (11748057_x_at) / Fold change /veh SOX15 (11748057_x_at) / RFU CD79A (11719716_a_at) / Fold change /veh CD79A (11719716_a_at) / RFU HIST1H1D (11736915_at) / Fold change /veh HIST1H1D (11736915_at) / RFU CASKIN2 (11723855_a_at) / Fold change /veh CASKIN2 (11723855_a_at) / RFU LOC730098 (11760151_x_at) / Fold change /veh LOC730098 (11760151_x_at) / RFU OR4N2 (11742367_at) / Fold change /veh OR4N2 (11742367_at) / RFU PRRT2 (11749266_a_at) / Fold change /veh PRRT2 (11749266_a_at) / RFU SNX32 (11753110_a_at) / Fold change /veh SNX32 (11753110_a_at) / RFU CDHR5 (11726645_a_at) / Fold change /veh CDHR5 (11726645_a_at) / RFU RCAN1 (11760418_a_at) / Fold change /veh RCAN1 (11760418_a_at) / RFU FAM167A (11723789_a_at) / Fold change /veh FAM167A (11723789_a_at) / RFU FAM26E (11764081_at) / Fold change /veh FAM26E (11764081_at) / RFU ISYNA1 (11749810_s_at) / Fold change /veh ISYNA1 (11749810_s_at) / RFU ACY1 (11761880_at) / Fold change /veh ACY1 (11761880_at) / RFU 11764098_at / Fold change /veh 11764098_at / RFU SAMD14 (11745864_x_at) / Fold change /veh SAMD14 (11745864_x_at) / RFU NPB (11741838_a_at) / Fold change /veh NPB (11741838_a_at) / RFU TMPRSS6 (11731388_a_at) / Fold change /veh TMPRSS6 (11731388_a_at) / RFU KRTAP10-2 (11738614_at) / Fold change /veh KRTAP10-2 (11738614_at) / RFU ARHGAP8 /// PRR5-ARHGAP8 (11727945_x_at) / Fold change /veh ARHGAP8 /// PRR5-ARHGAP8 (11727945_x_at) / RFU KRTAP5-7 /// NADSYN1 (11734609_at) / Fold change /veh KRTAP5-7 /// NADSYN1 (11734609_at) / RFU RASL12 (11751679_a_at) / Fold change /veh RASL12 (11751679_a_at) / RFU CDKN2B (11736163_a_at) / Fold change /veh CDKN2B (11736163_a_at) / RFU PRF1 (11729649_at) / Fold change /veh PRF1 (11729649_at) / RFU, ZNF638 /// ZNF638-IT1 / Fold change vs veh, ZNF638 /// ZNF638-IT1 / RFU, PANK3 / Fold change vs veh, PANK3 / RFU, SH3YL1 / Fold change vs veh, SH3YL1 / RFU, ZEB2 / Fold change vs veh, ZEB2 / RFU, NRIP1 / Fold change vs veh, NRIP1 / RFU, PTTG1IP / Fold change vs veh, PTTG1IP / RFU, CAPN2 / Fold change vs veh, CAPN2 / RFU, MED14 / Fold change vs veh, MED14 / RFU, SNORA58 / Fold change vs veh, SNORA58 / RFU, C1orf63 / Fold change vs veh, C1orf63 / RFU, LRRFIP1 / Fold change vs veh, LRRFIP1 / RFU, NDUFAF7 / Fold change vs veh, NDUFAF7 / RFU, SLC12A2 / Fold change vs veh, SLC12A2 / RFU, IBTK / Fold change vs veh, IBTK / RFU, ESF1 / Fold change vs veh, ESF1 / Fold change vs veh, TMEM50B / RFU, TAOK1 / Fold change vs veh, TAOK1 / RFU, ACBD3 / Fold change vs veh, ACBD3 / RFU, TMA16 / Fold change vs veh, TMA16 / RFU, RWDD3 / Fold change vs veh, RWDD3 / RFU, BCAT1 / Fold change vs veh, BCAT1 / RFU, EDEM3 / Fold change vs veh, EDEM3 / RFU, TMEM33 / Fold change vs veh, TMEM33 / RFU, WDR75 / Fold change vs veh, WDR75 / RFU, AHCTF1 / Fold change vs veh, AHCTF1 / RFU, TFRC / Fold change vs veh, TFRC / RFU, ZDHHC17 / Fold change vs veh, ZDHHC17 / RFU, NOM1 / Fold change vs veh, NOM1 / RFU, ARL8B / Fold change vs veh, ARL8B / RFU, ZBTB11 / Fold change vs veh, ZBTB11 / RFU, TAMM41 / Fold change vs veh, TAMM41 / RFU, KIAA1704 /// LOC100996395 / Fold change vs veh, KIAA1704 /// LOC100996395 / RFU, ING1 / Fold change vs veh, ING1 / RFU, TRMT61B / Fold change vs veh, TRMT61B / RFU, FUBP3 / Fold change vs veh, FUBP3 / RFU, TP53 / Fold change vs veh, TP53 / RFU, TNKS2 / Fold change vs veh, TNKS2 / RFU, ZFP14 / Fold change vs veh, ZFP14 / RFU, ACTR2 / Fold change vs veh, ACTR2 / RFU, PPP3R1 / Fold change vs veh, PPP3R1 / RFU, PIK3R1 / Fold change vs veh, PIK3R1 / RFU, HNRNPA1 / Fold change vs veh, HNRNPA1 / RFU, RNF170 / Fold change vs veh, RNF170 / RFU, ZNF28 / Fold change vs veh, ZNF28 / RFU, RNGTT / Fold change vs veh, RNGTT / RFU, OGT / Fold change vs veh, OGT / RFU, BRD1 / Fold change vs veh, BRD1 / RFU, MARS / Fold change vs veh, MARS / RFU, ZNF655 / Fold change vs veh, ZNF655 / RFU, FAHD1 / Fold change vs veh, FAHD1 / RFU, BDP1 / Fold change vs veh, BDP1 / RFU, LRRCC1 / Fold change vs veh, LRRCC1 / RFU, ARID1A / Fold change vs veh, ARID1A / RFU, ZNF146 / Fold change vs veh, ZNF146 / RFU, ZNF330 / Fold change vs veh, ZNF330 / RFU, GPN3 / Fold change vs veh, GPN3 / RFU, C9orf123 / Fold change vs veh, C9orf123 / RFU, N4BP2L2 / Fold change vs veh, N4BP2L2 / RFU, ARFIP1 / Fold change vs veh, ARFIP1 / RFU, FAM179B / Fold change vs veh, FAM179B / RFU, BCL10 / Fold change vs veh, BCL10 / RFU, UHRF1BP1L / Fold change vs veh, UHRF1BP1L / RFU, BET1 / Fold change vs veh, BET1 / RFU, CNOT2 / Fold change vs veh, CNOT2 / RFU, ZNF268 / Fold change vs veh, ZNF268 / Fold change vs veh, ZNF507 / RFU, DGCR2 / Fold change vs veh, DGCR2 / RFU, WDSUB1 / Fold change vs veh, WDSUB1 / Fold change vs veh, HSP90B1 /// MIR3652 / RFU, ADSS / Fold change vs veh, ADSS / RFU, GK / Fold change vs veh, GK / RFU, ZNF148 / Fold change vs veh, ZNF148 / RFU, TAF9 / Fold change vs veh, TAF9 / RFU, SLC1A5 / Fold change vs veh, SLC1A5 / RFU, SLMO2 / Fold change vs veh, SLMO2 / RFU, ABCC4 / Fold change vs veh, ABCC4 / RFU, LOC101060439 /// RAP1B / Fold change vs veh, LOC101060439 /// RAP1B / RFU, RFX7 / Fold change vs veh, RFX7 / RFU, GTPBP10 / Fold change vs veh, GTPBP10 / RFU, CNEP1R1 / Fold change vs veh, CNEP1R1 / RFU, BIVM-ERCC5 /// ERCC5 / Fold change vs veh, BIVM-ERCC5 /// ERCC5 / RFU, ILF3 / Fold change vs veh, ILF3 / RFU 11762660_at / Fold change /veh 11762660_at / RFU VCAN (11757783_s_at) / Fold change /veh VCAN (11757783_s_at) / RFU DDX43 (11728927_at) / Fold change /veh DDX43 (11728927_at) / RFU KRT8 (11758188_x_at) / Fold change /veh KRT8 (11758188_x_at) / RFU NKD1 (11759106_at) / Fold change /veh NKD1 (11759106_at) / RFU SRD5A1 (11742802_a_at) / Fold change /veh SRD5A1 (11742802_a_at) / RFU TPSAB1 /// TPSB2 (11721975_s_at) / Fold change /veh TPSAB1 /// TPSB2 (11721975_s_at) / RFU GSTM3 (11746129_a_at) / Fold change /veh GSTM3 (11746129_a_at) / RFU IL23R (11737362_x_at) / Fold change /veh IL23R (11737362_x_at) / RFU TMEM51 (11727254_a_at) / Fold change /veh TMEM51 (11727254_a_at) / RFU PIWIL2 (11732686_x_at) / Fold change /veh PIWIL2 (11732686_x_at) / RFU ORM1 (11744905_x_at) / Fold change /veh ORM1 (11744905_x_at) / RFU CCDC152 (11743942_at) / Fold change /veh CCDC152 (11743942_at) / RFU ECM1 (11717891_a_at) / Fold change /veh ECM1 (11717891_a_at) / RFU IL23R (11748794_a_at) / Fold change /veh IL23R (11748794_a_at) / RFU TNFAIP8L3 (11732012_x_at) / Fold change /veh TNFAIP8L3 (11732012_x_at) / RFU MBOAT4 (11741988_at) / Fold change /veh MBOAT4 (11741988_at) / RFU 11764193_at / Fold change /veh 11764193_at / RFU TMEM53 (11763286_at) / Fold change /veh TMEM53 (11763286_at) / RFU MAGEB2 (11727129_at) / Fold change /veh MAGEB2 (11727129_at) / RFU TMEM200A (11744735_a_at) / Fold change /veh TMEM200A (11744735_a_at) / RFU CCDC152 (11751479_a_at) / Fold change /veh CCDC152 (11751479_a_at) / RFU FAM211A (11726209_a_at) / Fold change /veh FAM211A (11726209_a_at) / RFU RGS16 (11746705_a_at) / Fold change /veh RGS16 (11746705_a_at) / RFU VCAN (11755009_s_at) / Fold change /veh VCAN (11755009_s_at) / RFU RHOB (11743442_s_at) / Fold change /veh RHOB (11743442_s_at) / RFU RGS16 (11720943_a_at) / Fold change /veh RGS16 (11720943_a_at) / RFU RGS16 (11720944_at) / Fold change /veh RGS16 (11720944_at) / RFU, VPS4B / Fold change vs veh, VPS4B / RFU, CREB1 / Fold change vs veh, CREB1 / RFU, DNAJC13 / Fold change vs veh, DNAJC13 / RFU, GNAQ / Fold change vs veh, GNAQ / RFU, CDK5R1 / Fold change vs veh, CDK5R1 / RFU, ZRANB3 / Fold change vs veh, ZRANB3 / RFU, CUL4A / Fold change vs veh, CUL4A / RFU, CCNY / Fold change vs veh, CCNY / RFU, UFL1 / Fold change vs veh, UFL1 / RFU, COG3 / Fold change vs veh, COG3 / RFU, DIAPH2 / Fold change vs veh, DIAPH2 / RFU, SKA2 / Fold change vs veh, SKA2 / RFU, AFF3 / Fold change vs veh, AFF3 / RFU, LMF1 / Fold change vs veh, LMF1 / RFU, IPO11 / Fold change vs veh, IPO11 / RFU, DFFB / Fold change vs veh, DFFB / RFU, FOXP1 / Fold change vs veh, FOXP1 / RFU, CARD8 / Fold change vs veh, CARD8 / RFU, STRN3 / Fold change vs veh, STRN3 / RFU, ADK / Fold change vs veh, ADK / RFU, RASSF2 / Fold change vs veh, RASSF2 / RFU, WIPF1 / Fold change vs veh, WIPF1 / RFU, LARP1B / Fold change vs veh, LARP1B / RFU, RASA1 / Fold change vs veh, RASA1 / RFU, RB1 / Fold change vs veh, RB1 / RFU, PPFIA1 / Fold change vs veh, PPFIA1 / RFU, MAT2A / Fold change vs veh, MAT2A / RFU, CCT5 / Fold change vs veh, CCT5 / RFU, WDR92 / Fold change vs veh, WDR92 / RFU, CUX1 / Fold change vs veh, CUX1 / RFU, TTC7A / Fold change vs veh, TTC7A / RFU, TMEM135 / Fold change vs veh, TMEM135 / RFU, DEPTOR / Fold change vs veh, DEPTOR / RFU, CPM / Fold change vs veh, CPM / RFU, DNAJB6 / Fold change vs veh, DNAJB6 / RFU, CACNA2D3 / Fold change vs veh, CACNA2D3 / RFU, DTX4 / Fold change vs veh, DTX4 / RFU, TFCP2 / Fold change vs veh, TFCP2 / RFU, GMCL1 /// GMCL1P1 / Fold change vs veh, GMCL1 /// GMCL1P1 / RFU, AEBP2 / Fold change vs veh, AEBP2 / RFU, SNHG1 /// SNORD22 /// SNORD25 /// SNORD26 /// SNORD27 /// SNORD28 /// SNORD29 /// SNORD31 / Fold change vs veh, SNHG1 /// SNORD22 /// SNORD25 /// SNORD26 /// SNORD27 /// SNORD28 /// SNORD29 /// SNORD31 / Fold change (Aza/veh), C12orf56 (ProbeSet 11735607_a_at) / Fold change (ACY-1035/veh), C12orf56 (ProbeSet 11735607_a_at) / Fold change (Aza/veh), FGFR1OP (ProbeSet 11751329_s_at) / Fold change (ACY-1035/veh), FGFR1OP (ProbeSet 11751329_s_at) / Fold change (Aza/veh), VPS36 (ProbeSet 11739960_a_at) / Fold change (ACY-1035/veh), VPS36 (ProbeSet 11739960_a_at) / RFU SYPL1 (11715823_x_at) / Fold change /veh SYPL1 (11715823_x_at) / RFU IGFBP7 (11715501_s_at) / Fold change /veh IGFBP7 (11715501_s_at) / RFU REEP3 (11722064_at) / Fold change /veh REEP3 (11722064_at) / RFU IGLL1 (11728026_x_at) / Fold change /veh IGLL1 (11728026_x_at): dose or concentration left out as unconfirmed. The conditions noted are these: ProbeSet 11747888_a_at; LIST D.

Regarding `Nc1ncn([C@@H]2O[C@H](CO)[C@@H](O)[C@H]2O)c(=O)n1` [azacitidine], the “Fold change vs veh, SH3YL1” value is given as 0.79.
